Experimental findings from patent publication US5691338A, “1,2-dithiole-3 thiones for the treatment of reverse transcriptase-dependent viral infections” (priority 1995, dated 1997) are described below.

This assay has as its system HIV-1 (HTLVIIIB). As to the kind of experiment: microbe, parasite or virus in culture. The note with it: for synergy in inhibiting HIV-1 replication: p24 release / IFA, H9 cells, high viral inhibition. How it is done: The effects for test compounds were assessed by means of both IFA and p24 release. In general, the following protocol was followed: H9 cells were infected with HIV-1 at 1000 50% infective doses of viruses/10^6 cells. Virus was allowed to adsorb for 1 h, after which unadsorbed virus was removed by centrifugation. The cells were resuspended and washed twice with PBS (without Ca^+2 or Mg^+2 salts) and centrifuged to collect the cell pellet (150×g×10 min). Cells were suspended in fresh medium and added at a final cell density of 500,000 cells/ml in a 96-well plate with media containing 0.1% DMSO and various concentrations of test compounds. The cells were re-fed freshly prepared media containing 0.1% DMSO±test compounds on day four (for preinduction experiments, cells were exposed to inducers on days -2, 0, and +4 days relative to infection). After seven days, cells were examined for cytoxicity by trypan blue exclusion, the degree of infection with HIV-1 by IFA, and the supernatants were assayed for p24 levels according to the manufacturer's directions. The IFA procedure can be summarized as follows: The cells were washed twice in PBS and were placed in 5 mm 12-well slides. After allowing the slides to dry and fixing the cells with acetone for 5 min, 10 μl of HIV-1 positive serum in 40 μl PBS was added to each well and allowed to incubate at 37° C. for 30 min. After incubation, the slides were washed twice with PBS and incubated at 37° C. for 30 min with 2.5 μl goat anti-human IgG-fluorescein isothiocyanate conjugate in 50 μl PBS containing 0.01% Evans Blue per well. The slides were then washed twice with PBS, dried, and mounted with 50% glycerol in PBS, and scored for the percentage of fluorescent cells by fluorescent microscopy.
Statistical significance for GSH and QR levels were established by the unpaired t test using the INSTAT statistics program (Graphpad, San Diego, Calif.). The Ki of oltipraz was determined by performing Segal transformations (26) of Dixon plots. […] Calculations were performed on spreadsheets using Lotus 1-2-3 software (Cambridge, Mass.).

Where two headings read alike, the source gives them in different places.

As to `Cc1c(-c2cnccn2)ssc1=S` [compound 11, 4-methyl-5-(2-pyrazinyl)-1,2-dithiole-3-thione], the IC50 (Human immunodeficiency virus 1, H9, read-out: IC50 as determined by p24 antigen release assays) came out at 14.8 ± 3.1 µM and the IC50 (Human immunodeficiency virus 1, H9, read-out: median dose (p24 release)) came out at 19.4 µM. Further, the “synergy in inhibiting HIV-1 replication” value is, setting by setting: (listed as Oltipraz) “highly synergistic with azidothymidine (AZT)”; (listed as oltipraz) “acts synergistically with AZT”.
